In general, IC50 refers to the concentration that inhibits the measured activity by half.

The source of these data is patent US6284896A, “Abeo-ergoline derivatives as 5HT1A ligands” (Pharmacia & Upjohn S.p.A., priority 1994, dated 2001).

One experiment concerns the target T1, 5-HT1A receptor (Rattus norvegicus, UniProt P19327).
T1 construct: Freezed hippocampus dissected out from rats were homogenized; from tissue; host or cells: rat hippocampus, crude synaptosome membranes
T1 sequence (P19327 1-422): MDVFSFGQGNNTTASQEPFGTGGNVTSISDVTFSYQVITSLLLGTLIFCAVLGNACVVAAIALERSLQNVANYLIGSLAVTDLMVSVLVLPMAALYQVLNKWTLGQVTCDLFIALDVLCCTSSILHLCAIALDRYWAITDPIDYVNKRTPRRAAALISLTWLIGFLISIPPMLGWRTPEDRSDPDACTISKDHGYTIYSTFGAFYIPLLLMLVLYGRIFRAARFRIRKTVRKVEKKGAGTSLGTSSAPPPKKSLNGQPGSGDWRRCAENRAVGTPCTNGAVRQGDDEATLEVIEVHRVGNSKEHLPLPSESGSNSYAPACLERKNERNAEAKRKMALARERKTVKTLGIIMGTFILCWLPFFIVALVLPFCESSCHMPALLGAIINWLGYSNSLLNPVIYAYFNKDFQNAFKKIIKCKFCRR
The experiment in a line: Affinity for Serotonin 1A receptor, 3H-8-OH-DPAT binding test (rat hippocampus synaptosome membranes). The procedure:
Experiment 1: Affinity for Serotonin 1A (^5 KT1A) Receptor [^3 H-8-Hydroxy-2-dipropylaminotetralin (^3-8 -OH-DPTA)-Binding Test].
Preparation of crude synaptosome fraction and binding assay were conducted in accordance with the method reported in Journal of Neurochemistry, vol.
The supernatant was centrifuged at 40,000×g for 20 minutes at 0° C. and the resulting pellet was homogenized in 40 volumes of the above buffer and incubated at 37° C. for 10 minutes.
After completion of reaction, the suspension was centrifuged at 40,000×g for 20 minutes at 0° C. The resulting pellet was washed twice by resuspension in 40 volumes of the above buffer and centrifugation, and finally suspended in 60 volumes of ice-cold 50 mM Tris-HCl buffer (pH 7.4) containing 1 EM manganese chloride for use in the next assay.
To the aliquots (900 μl) of synaptosome membranes solution were added 50 μl of tritiated 8-OH-DPAT solution at the terminal concentration of 0.2 nM and 50 μl of test compound solution or 50 μl of its medium, and incubated at 37° C. for 10 minutes. Then to the mixture were added 5 ml of ice-cold 50 mM Tris-HCl buffer (pH 7.4) rapidly vacuum-filtered through Whatman^R GF/B. filters and was washed twice with 5 ml of the same buffer. The radioactivity of the residue remaining on the filters was measured by liquid scintillation counter. Non specific binding was determined under the presence of 10^-5 M serotonin (5-HT).

Another experiment deals with T2, 5-HT2 receptor (Rattus norvegicus, UniProt P14842).
T2 construct: Freezed cerebral cortex dissected out from rats were homogenized; from tissue; host or cells: rat cerebral cortex, crude synaptosome membranes
T2 sequence (P14842 whole entry): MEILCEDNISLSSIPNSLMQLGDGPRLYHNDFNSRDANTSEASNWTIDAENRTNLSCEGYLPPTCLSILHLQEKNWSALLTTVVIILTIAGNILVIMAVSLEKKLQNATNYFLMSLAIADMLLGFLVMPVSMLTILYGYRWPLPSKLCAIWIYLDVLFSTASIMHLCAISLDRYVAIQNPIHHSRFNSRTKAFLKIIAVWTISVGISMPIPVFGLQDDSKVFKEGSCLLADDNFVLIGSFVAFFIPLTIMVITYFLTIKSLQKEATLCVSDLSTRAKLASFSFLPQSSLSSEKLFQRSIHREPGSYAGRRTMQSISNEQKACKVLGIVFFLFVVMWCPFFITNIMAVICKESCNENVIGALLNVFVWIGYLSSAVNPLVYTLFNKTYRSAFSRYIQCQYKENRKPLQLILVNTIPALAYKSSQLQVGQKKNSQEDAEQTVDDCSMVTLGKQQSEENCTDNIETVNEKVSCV
The experiment in a line: Affinity for Serotonin 2 (5-HT2) receptor, 3H-Ketanserin binding test (rat cerebral cortex). The conditions noted are these: 3H-Ketanserin 0.2 mM (so in the source), 37° C., 20 minutes, read-out: Binding Profile IC50 5-HT2. The procedure:
Experiment 2: Affinity for Serotonin 2(5-HT2) Receptor (^3 H-Ketanserin Binding Test).
Preparation of crude synaptosome fraction and binding assay were conducted according to the method reported in Molecular Pharmacology, vol. 21, page 301, 1981 by Leysen et al.
Freezed cerebral cortex dissected out from rats were homogenized in 30 volumes of ice-cold 0.32M sucrose solution and the suspension was centrifuged at 1000×g for 10 minutes at 0° C. The supernatant was centrifuged at 40,000×g for 20 minutes at 0° C. and the resulting pellets was homogenized in 30 volumes of ice-cold 50 mM Tris-HCl buffer (pH 7.7) and incubated at 37° C. for 10 minutes. The suspension was centrifuged at 40,000×g for 20 minutes at 0° C. again. The resulting pellet was homogenized in 100 volumes of the above buffer and provided as synaptosome membranes solutiofifor the next assay.
To the aliquots (900μ) of synaptosome membranes solution were added 50 μl solution ^3 H-Ketanserin solution at the terminal concentration of 0.2 mM and 50 μl of test compound or its medium, and incubated at 37° C. for 20 minutes. After completion of the reaction, the mixture was rapidly vacuum-filtered through Whatman^R GF/B filters. The filters were washed three times with 5 ml of the above buffer, and then the radioactivity of the residue remaining on the filters was measured by liquid scintillation counter. Non specific binding was determined under the presence of 10 μM of mianserin. 50% inhibition concentration (ICY) of the test compound was graphically determined.

Another experiment concerns the target T3, D2 receptor (Rattus norvegicus, UniProt P61169).
T3 construct: Freezed corpus striatum dissected out from rats were homogenized; from tissue; host or cells: rat corpus striatum, crude synaptosome membranes
The experiment is described as follows: Affinity for Dopamine 2 (D2) receptor, 3H-Spiperone binding test (rat corpus striatum). The procedure:
Experiment 3: Affinity for Dopamine 2 (D2) Receptor (^3 H-Spiperone Binding Test).
Preparation of crude synaptosome fraction and binding assays were conducted in accordance with the method reported in European Journal of Pharmacology, vol. 46, page 377, 1977 by I. Creese et al. Freezed corpus striatum dissected out from rats were homogenized in 100 volumes of ice-cold 50 mM Tris-HCl buffer (pH 7.7) and the suspension was centrifuged at 500×g for 10 minutes at 0° C. The supernatant was centrifuged at 50,000×g for 15 minutes at 0° C. and the resulting pellet was homogenized in 100 volumes of the above buffer and then the suspension was centrifuged at 50,000×g for 15 minutes at 0° C. again. The resulting pellet was homogenized in 150 volumes of 50 mM Tris-HCl buffer (pH 7.1) containing 120 mM potassium chloride, 2 mM calcium chloride, 1 mM magnesium chloride, 0.1% ascorbic acid and 10 μM pargyline. The suspension was incubated at 37° C. for 10 minutes and then provided as synaptosome membranes solution for the next assays. To the aliquots (900 μ) of synaptosome membranes solution were added 50 μl of 3H-Spiperone solution at the terminal concentration of 0.2 nM and 50 μl of test compound solution or 50 μl of its medium, and incubated at 37° C. for 20 minutes. After completion of the reaction, the mixture was rapidly vacuum-filtered through WhatmanR GF/B filters. The filters were washed three times with 5 ml of the above buffer, and then the radioactivity of the residue remaining on the filters was measured by liquid scintillation counter. Non specific binding was determined under presence of 100 μM of (L)-Sulpiride 50% inhibition concentration (IC50) of the test compound was graphically determined.

In another experiment the target is D1 receptor. The experiment in a line: D1 receptor binding (Binding Profile table).
The mark [1] stands for this setting: tritiated 8-OH-DPAT 0.2 nM, rat hippocampus, 37° C., 10 minutes, read-out: Binding Profile IC50 5-HT1A.
Where [2] appears, read: 3H-Spiperone 0.2 nM, rat corpus striatum, 37° C., 20 minutes, read-out: Binding Profile IC50 D2.
Where [3] appears, read: read-out: Binding Profile IC50 5-HT1A, tritiated 8-OH-DPAT 0.2 nM, rat hippocampus, 37° C., 10 minutes.

Read-outs that look alike come from different tables or passages of the source.

T3 sequence (P61169 whole entry): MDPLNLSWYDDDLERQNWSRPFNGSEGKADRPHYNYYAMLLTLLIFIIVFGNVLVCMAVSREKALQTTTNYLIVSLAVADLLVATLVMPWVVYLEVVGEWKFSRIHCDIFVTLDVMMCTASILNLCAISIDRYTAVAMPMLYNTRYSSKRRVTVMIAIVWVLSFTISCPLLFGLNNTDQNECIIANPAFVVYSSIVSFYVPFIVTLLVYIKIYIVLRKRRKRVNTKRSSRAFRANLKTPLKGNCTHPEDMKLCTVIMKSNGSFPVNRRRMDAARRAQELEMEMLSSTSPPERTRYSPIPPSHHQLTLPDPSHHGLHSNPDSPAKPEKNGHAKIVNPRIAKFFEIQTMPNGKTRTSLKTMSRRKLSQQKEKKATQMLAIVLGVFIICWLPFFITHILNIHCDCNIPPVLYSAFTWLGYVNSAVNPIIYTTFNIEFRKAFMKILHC

For the molecule `CSc1[nH]c2cccc3c2c1C[C@@H]1C(=C3)[C@@H](C)CN1C` [Example 5, 5β(10→9)abeo-9,10-Didehydro-2-methylthio-6-methyl-8β-methyl-ergoline], the concentration for half-maximal inhibition (IC50) was 800 nM on 5-HT1A receptor, 800 nM on 5-HT2 receptor, 850 nM at D2 receptor and 2540 nM at D1 receptor.

`CC(=O)N1C[C@H]2C[C@@H]3C(=Cc4cccc1c42)[C@@H](C)CN3C` [Example 34, 5β(10→9)abeo-2,3β-Dihydro-9,10-didehydro-1-acetyl-6-methyl-8β-methyl-ergoline]: the IC50 is 100 nM at 5-HT1A receptor (setting [1]), above 10000 nM on 5-HT2 receptor, 5000 nM on D2 receptor (setting [2]) and above 10000 nM on D1 receptor.

Consider `C[C@H]1CN(C)[C@@H]2C[C@@H]3CN(C(N)=O)c4cccc(c43)C=C21` [Example 36, 5β(10→9)abeo-2,3β-Dihydro-9,10-didehydro-1-amino-carbonyl-6-methyl-8β-methyl-ergoline], for which the IC50 is 100 nM on 5-HT1A receptor (setting [1]), above 10000 nM at 5-HT2 receptor, 4480 nM on D2 receptor (setting [2]) and above 10000 nM at D1 receptor.

Take `C[C@H]1CN(C)[C@@H]2C[C@@H]3CNc4ccc([N+](=O)[O-])c(c43)C=C21` [Example 40, 5β(10→9)abeo-2,3β-Dihydro-9,10-didehydro-6-methyl-8β-methyl-12 nitro-ergoline]: the IC50 is 3 nM on 5-HT1A receptor (setting [1]), 1240 nM at 5-HT2 receptor, 4870 nM at D2 receptor (setting [2]) and 2750 nM at D1 receptor.

Consider `C[C@H]1CN(C)[C@@H]2C[C@@H]3CNc4ccc(Br)c(c43)C=C21` [Example 39, 5β(10→9)abeo-2,3β-Dihydro-9,10-didehydro-6-methyl-8β-methyl-12-bromo-ergoline], for which the half-maximal inhibitory concentration (IC50) worked out at 6 nM on 5-HT1A receptor, 2080 nM on 5-HT2 receptor, 130 nM at D2 receptor and 7100 nM on D1 receptor.

On to `C[C@H]1CN(C)[C@@H]2C[C@@H]3CNc4cccc(c43)C=C21` [Example 33, 5β(10→9)abeo-2,3β-Dihydro-9,10-didehydro-6-methyl-8β-methyl-ergoline], for which the half-inhibitory concentration (IC50) at 5-HT1A receptor (setting [3]) is 6 nM; on 5-HT2 receptor it was above 10000 nM; at D2 receptor (setting [2]), above 10000 nM; on D1 receptor, above 10000 nM.

Take `CC(=O)N1C[C@@H]2C[C@@H]3C(=Cc4cccc1c42)[C@@H](C)CN3C` [Example 35, 5β(10→9)abeo-2,3α-Dihydro-9,10-didehydro-1-acetyl-6-methyl-8β-methyl-ergoline]: the IC50 on 5-HT1A receptor (setting [1]) is 530 nM; on 5-HT2 receptor it was above 10000 nM; at D2 receptor (setting [2]), 6030 nM; on D1 receptor, above 10000 nM.

For `C[C@H]1CN(C)[C@@H]2Cc3c(Br)[nH]c4cccc(c34)C=C21` [Example 4, 5β(10→9)abeo-9,10-Didehydro-2-bromo-6-methyl-8β-methyl-ergoline], the concentration for half-maximal inhibition (IC50) amounted to 330 nM at 5-HT1A receptor (setting [1]), 1000 nM at 5-HT2 receptor, 620 nM on D2 receptor (setting [2]) and 1920 nM at D1 receptor.

For the molecule `C[C@H]1CN(C)[C@@H]2Cc3c[nH]c4ccc([N+](=O)[O-])c(c34)C=C21` [Example 42, 5β(10→9)abeo-9,10-Didehydro-6-methyl-8β-methyl-14-nitro ergolina], the IC50 was 18 nM on 5-HT1A receptor (setting [3]); 1860 nM at 5-HT2 receptor; 2000 nM at D2 receptor (read-out: Binding Profile IC50 D2, 3H-Spiperone 0.2 nM, rat corpus striatum, 37° C., 20 minutes); above 10000 nM at D1 receptor.

For the molecule `C[C@H]1CN(C)[C@@H]2Cc3c[nH]c4cccc(c34)C=C21` [Example 3, 5β(10→9)abeo-9,10-Didehydro-6-methyl-8β-methyl-ergoline], the 50% inhibitory concentration (IC50) at 5-HT1A receptor is 6 nM; at 5-HT2 receptor, 110 nM; on D2 receptor (setting [2]), 940 nM; at D1 receptor it was 1850 nM.
